In the NIST ThermoML archive (doi:10.1021/acs.jced.5b00691):

Legend:
[1] = for surface tension liquid-gas: surface light scattering; for kinematic viscosity / mass density: Liquid; for kinematic viscosity: Surface laser light scattering (SLLS); for mass density: Vibrating tube method
[2] = xn = mol fraction of the nth substance listed; conditions: x1 = 0.623; for surface tension liquid-gas: surface light scattering; for kinematic viscosity / mass density: Liquid; for kinematic viscosity: Surface Light Scattering; for mass density: Vibrating tube method

CCOC(F)(C(F)(F)C(F)(F)C(F)(F)F)C(F)(C(F)(F)F)C(F)(F)F (stereo not drawn) [2-trifluoromethyl-3-ethoxydodecafluorohexane]
[1]
Conditions	kinematic viscosity [m2/s]	mass density [kg/m3]	surface tension liquid-gas [mN/m]
273.15 K	1.14e-06	1670.6	16.92
278.15 K	–	1660.59	–
283.15 K	9.38e-07	1650.49	16.23
288.15 K	–	1640.35	–
293.15 K	8.04e-07	1630.17	15.52
298.15 K	–	1619.92	–
303.15 K	6.91e-07	1609.61	14.75
308.15 K	–	1599.24	–
313.15 K	6.11e-07	1588.77	14.07
318.15 K	–	1578.28	–
323.15 K	5.38e-07	1567.69	13.3
328.15 K	–	1557	–
333.15 K	4.71e-07	1546.2	12.65
338.15 K	–	1535.3	–
343.15 K	4.28e-07	1524.31	11.89
348.15 K	–	1513.21	–
353.15 K	3.88e-07	1501.99	11.13
358.15 K	–	1490.64	–
363.15 K	3.52e-07	1479.16	10.4
373.15 K	3.17e-07	–	9.66

COC(F)(F)C(F)(C(F)(F)F)C(F)(F)F [methyl nonafluoroisobutyl ether] + COC(F)(F)C(F)(F)C(F)(F)C(F)(F)F
[2]
Conditions	kinematic viscosity [m2/s]	mass density [kg/m3]	surface tension liquid-gas [mN/m]
273.15 K	6.64e-07	1579.23	15.82
278.15 K	–	1566.86	–
283.15 K	5.7e-07	1554.37	14.82
288.15 K	–	1541.76	–
293.15 K	4.84e-07	1529.03	13.8
298.15 K	–	1516.15	–
303.15 K	4.28e-07	1503.18	12.89
308.15 K	–	1490.04	–
313.15 K	3.81e-07	1476.74	11.92
318.15 K	–	1463.23	–
323.15 K	3.38e-07	1449.5	11
328.15 K	–	1435.61	–
333.15 K	3.06e-07	1421.48	10.06
338.15 K	–	1407.13	–
343.15 K	2.77e-07	1392.52	9.13
348.15 K	–	1377.65	–
353.15 K	2.46e-07	1362.5	8.16
358.15 K	–	1347.04	–
363.15 K	2.28e-07	1331.24	7.32
373.15 K	2.09e-07	–	6.46

COC(F)(F)C(F)(F)C(F)(F)F [heptafluoropropyl methyl ether]
[1]
Conditions	kinematic viscosity [m2/s]	mass density [kg/m3]	surface tension liquid-gas [mN/m]
273.15 K	4.22e-07	1471.16	14.49
278.15 K	–	1458.15	–
283.15 K	3.65e-07	1444.94	13.31
288.15 K	–	1431.58	–
293.15 K	3.3e-07	1418.04	12.33
298.15 K	–	1404.3	–
303.15 K	2.9e-07	1390.35	11.23
308.15 K	–	1376.15	–
313.15 K	2.64e-07	1361.67	10.27
318.15 K	–	1346.91	–
323.15 K	2.37e-07	1331.89	9.23
328.15 K	–	1316.54	–
333.15 K	2.2e-07	1300.86	8.28
338.15 K	–	1284.82	–
343.15 K	2.01e-07	1268.38	7.36
348.15 K	–	1251.45	–
353.15 K	1.8e-07	1234.05	6.38
358.15 K	–	1216.87	–
363.15 K	1.66e-07	1199.54	5.48
373.15 K	1.53e-07	–	4.62
